Measured values published in publication PMC6882468 (Journal of Enzyme Inhibition and Medicinal Chemistry, 2019).

Legend:
[1] = test system: DNFB-induced mouse model of allergic contact dermatitis; experiment: DNFB-induced mouse model of allergic contact dermatitis (ear swelling); format: in vivo, Male ICR mice; conditions: for Swelling degree / Inhibition (%) of ear swelling: mice; for Swelling degree: Mean ± SD, n = 6; for Inhibition (%) of ear swelling: vs model group
Protocol: Male ICR mice (20 ± 2 g) were obtained from the Experimental Animal Centre of Anhui Medical University (Hefei, China). The mice reared in a pathogen-free setting (23 ± 2 °C, 55 ± 5% humidity) with free access to water and pelleted food throughout the experimental cycle. All experimental procedures performed in accordance with guide for the Care and Use of Laboratory Animals (National Research Council, 1996) and were approved by the Experimental Animal Ethics Committee of Anhui University of Chinese Medicine (Hefei, China). After 7 days acclimatisation, the mice were randomly divided into control group, ACD model group, dexamethasone positive control group and 20 compound groups, six in each group. The control group and the model group were given the same dose of the vehicle, the positive control group was given dexamethasone 0.5 mg/kg, and the test compound groups were given compound 5 mg/kg, all of which were given by intragastric administration and were administered once a day for 6 days. Except for the control group, the 50 µL of 1% DNFB (in acetone/olive oil 4:1) was administered to the stripped epidermis, and repeated the next day. After 6 days of drug treatment, 10 µL of 1% DNFB acetone olive oil solution was applied on both sides of the right ear to stimulate inflammation, and equivalent acetone olive oil solution was applied on the left ear for comparison. […] Calculation was carried out according to the following equations. Swelling degree (mg) = MR – ML Inhibitory rate of ear swelling (%)=((MR – ML) model – (MR – ML) treated)/(MR – ML) model ×100% MR=Average weight of the right ear slices;ML= Average weight of the left ear slices […] Dexamethasone (DEX) at a p.o. dose of 0.5 mg/kg was employed as the positive control. After the mice were sacrificed, the swelling degree and inhibition rate were calculated by weighing the same part of both ears.

[2] = test system: NF-κB activation in RAW264.7 cells; experiment: Western blot of LPS-induced NF-κB activation; format: cell-based, Murine; conditions: RAW264.7, 2-h pre-treatment before LPS stimulation
Protocol: The cell in 96-well plates were treated as described above and then stimulated with LPS (200 ng/mL) for 24 h. The cells were harvested and lysed in an extraction lysis buffer (Beyotime Biotechnology, Shanghai, China) containing protease inhibitors. The protein concentration was determined using a BCA protein assay kit (Thermo Scientific, 23227). The whole cell lysates were separated by 10% sodium dodecyl sulphate-polyacrylamide gel electrophoresis and transferred to a nitrocellulose membrane. Each membrane was incubated with Tris-buffered saline (pH 7.6, containing 0.05% Tween-20 and 5% non-fat milk). The nitrocellulose membrane was incubated with the primary antibody against p-JNK1/2, JNK1/2, p-p38, p38, p-ERK1/2, ERK1/2, IκBa, NF-κB p65, COX-2, iNOS or β-Actin (Abcam, Cambridge, UK). Immunoreactive bands were detected by incubating with horseradish peroxidase-conjugated secondary antibodies, and visualised using enhanced chemiluminescence reagents (Bio-Rad, Hercules, CA).
Figure 5. Compound 6n inhibited LPS-induced NF-κB activation in RAW264.7 cells. […] The levels of NF-κB p65, IκB, and their phosphorylated forms were analysed using western blot.

[3] = 5 mg/kg intragastric once a day for 6 days, ear slices weighed 24 h after DNFB challenge
[4] = 5 mg/kg intragastric once a day for 6 days
[5] = positive control 0.5 mg/kg intragastric once a day for 6 days

SMILES: COc1ccc(CN2CCN(C(=O)c3ccccc3C(C)=O)CC2)c(OC)c1 [Compound 6m, 1–(2-(4–(2,4-Dimethoxybenzyl)piperazine-1-carbonyl)phenyl)ethan-1-one]
- Swelling degree [1, 3]: 11.6 ± 2.4 mg
- Inhibition (%) of ear swelling [1, 4]: 29.3%

SMILES: CC(=O)c1ccccc1C(=O)N1CCN(Cc2ccncc2)CC1 [Compound 6s, 1–(2-(4-(Pyridin-4-ylmethyl)piperazine-1-carbonyl)phenyl)ethan-1-one]
- Swelling degree [1, 3]: 12.9 ± 3.4 mg
- Inhibition (%) of ear swelling [1, 4]: 21.3%

SMILES: CC(=O)c1ccccc1C(=O)N1CCN(Cc2ccc(C(F)(F)F)cc2)CC1 [Compound 6d, 1–(2-(4–(4-(Trifluoromethyl)benzyl)piperazine-1-carbonyl)phenyl)ethan-1-one]
- Swelling degree [1, 3]: 12.5 ± 3.4 mg
- Inhibition (%) of ear swelling [1, 4]: 23.8%

SMILES: CC(=O)c1ccccc1C(=O)N1CCN(Cc2ccc(Cl)cc2)CC1 [Compound 6a, 1–(2-(4–(4-Chlorobenzyl)piperazine-1-carbonyl)phenyl)ethan-1-one]
- Swelling degree [1, 3]: 11.9 ± 3.7 mg
- Inhibition (%) of ear swelling [1, 4]: 27.4%

SMILES: C[C@@H]1C[C@H]2[C@@H]3CCC4=CC(=O)C=C[C@]4(C)[C@@]3(F)[C@@H](O)C[C@]2(C)[C@@]1(O)C(=O)CO [DEX, Dexamethasone, reference compound]
- Inhibition (%) of ear swelling [1, 5]: 51.8%
- Swelling degree [1, 5]: 7.9 ± 3.0 mg

SMILES: CC(=O)c1ccccc1C(=O)N1CCN(Cc2ccc([N+](=O)[O-])cc2)CC1 [Compound 6e, 1–(2-(4–(4-Nitrobenzyl)piperazine-1-carbonyl)phenyl)ethan-1-one]
- Swelling degree [1, 3]: 13.0 ± 3.3 mg
- Inhibition (%) of ear swelling [1, 4]: 20.7%

SMILES: CC(=O)c1ccccc1C(=O)N1CCN(Cc2ccc3c(c2)OCCO3)CC1 [Compound 6q, 1–(2-(4-((2,3-Dihydrobenzo[b][1,4]dioxin-6-yl)methyl)piperazine-1-carbonyl)phenyl)ethan-1-one]
- Swelling degree [1, 3]: 13.3 ± 2.6 mg
- Inhibition (%) of ear swelling [1, 4]: 18.9%

SMILES: CC(=O)c1ccccc1C(=O)N1CCN(Cc2ccc(C#N)cc2)CC1 [Compound 6c, 4-((4–(2-Acetylbenzoyl)piperazin-1-yl)methyl)benzonitrile]
- Swelling degree [1, 3]: 11.3 ± 4.0 mg
- Inhibition (%) of ear swelling [1, 4]: 31.1%

SMILES: COc1ccc(CN2CCN(C(=O)c3ccccc3C(C)=O)CC2)cc1 [Compound 6b, 1–(2-(4–(4-Methoxybenzyl)piperazine-1-carbonyl)phenyl)ethan-1-one]
- Swelling degree [1, 3]: 12.0 ± 3.4 mg
- Inhibition (%) of ear swelling [1, 4]: 26.8%

SMILES: CC(=O)c1ccccc1C(=O)N1CCN(Cc2ccccc2)CC1 [Compound 6k, 1–(2-(4-Benzylpiperazine-1-carbonyl)phenyl)ethan-1-one]
- Swelling degree [1, 3]: 13.0 ± 3.5 mg
- Inhibition (%) of ear swelling [1, 4]: 20.7%

SMILES: CC(=O)c1ccccc1C(=O)N1CCN(Cc2ccccc2Cl)CC1 [Compound 6h, 1–(2-(4–(2-Chlorobenzyl)piperazine-1-carbonyl)phenyl)ethan-1-one]
- Swelling degree [1, 3]: 12.8 ± 4.1 mg
- Inhibition (%) of ear swelling [1, 4]: 21.9%

SMILES: CC(=O)c1ccccc1C(=O)N1CCN(Cc2ccc3c(c2)OCO3)CC1 [Compound 6p, 1–(2-(4-(Benzo[d][1,3]dioxol-5-ylmethyl)piperazine-1-carbonyl)phenyl)ethan-1-one]
- Swelling degree [1, 3]: 11.0 ± 3.2 mg
- Inhibition (%) of ear swelling [1, 4]: 32.9%
- in vivo inhibitory activity, in words ([1]; p.o. 5 mg/kg, p < 0.01): significant inhibitory activity

SMILES: CC(=O)c1ccccc1C(=O)N1CCN(Cc2cccc(Cl)c2)CC1 [Compound 6i, 1–(2-(4–(3-Chlorobenzyl)piperazine-1-carbonyl)phenyl)ethan-1-one]
- Swelling degree [1, 3]: 12.0 ± 3.0 mg
- Inhibition (%) of ear swelling [1, 4]: 26.8%

SMILES: Cc1ccc(S(=O)(=O)/C=C/C#N)cc1 [Bay 11e7082, reference compound]
- LPS-induced IκB phosphorylation [2]: markedly decreased
- accumulation of NF-κB p65 subunit in the nucleus [2]: lowered
- cytosolic IκB [2]: increased

SMILES: CC(=O)c1ccccc1C(=O)N1CCN(Cc2ccc(C)cc2)CC1 [Compound 6l, 1–(2-(4–(4-Methylbenzyl)piperazine-1-carbonyl)phenyl)ethan-1-one]
- Swelling degree [1, 3]: 11.4 ± 3.2 mg
- Inhibition (%) of ear swelling [1, 4]: 30.5%

SMILES: CC(=O)c1ccccc1C(=O)N1CCN(Cc2ccc(Cl)cc2Cl)CC1 [Compound 6g, 1–(2-(4–(2,4-Dichlorobenzyl)piperazine-1-carbonyl)phenyl)ethan-1-one]
- Swelling degree [1, 3]: 12.9 ± 2.6 mg
- Inhibition (%) of ear swelling [1, 4]: 21.3%

SMILES: CC(=O)c1ccccc1C(=O)N1CCN(Cc2nc(C)c(C)nc2C)CC1 [Compound 6r, 1–(2-(4-((3,5,6-Trimethylpyrazin-2-yl)methyl)piperazine-1-carbonyl)phenyl)ethan-1-one]
- Swelling degree [1, 3]: 10.8 ± 3.5 mg
- Inhibition (%) of ear swelling [1, 4]: 34.1%

SMILES: COc1cccc(CN2CCN(C(=O)c3ccccc3C(C)=O)CC2)c1 [Compound 6o, 1–(2-(4–(3-Methoxybenzyl)piperazine-1-carbonyl)phenyl)ethan-1-one]
- Swelling degree [1, 3]: 13.0 ± 4.4 mg
- Inhibition (%) of ear swelling [1, 4]: 20.7%
